Data taken from patent US20080269200A1, “Indole Derivatives and Use Thereof as Kinase Inhibitors in Particular Ikk2 Inhibitors” (SmithKline Beecham Corporation, priority 2004, published 2008).

target: T1, Recombinant human IKK2 (residues 1-737) (Homo sapiens, UniProt O14920); assay: IKK2 Assay (TR-FRET); format: biochemical; settings: IKK2 5 nM, GST-IκBα substrate 25 nM, ATP 1 μM, 30 minutes at room temperature
T1 construct: Recombinant human IKK2 (residues 1-737) was expressed in baculovirus as a C-terminal GST-tagged fusion protein; GST (C); made in house
T1 sequence (O14920 1-737): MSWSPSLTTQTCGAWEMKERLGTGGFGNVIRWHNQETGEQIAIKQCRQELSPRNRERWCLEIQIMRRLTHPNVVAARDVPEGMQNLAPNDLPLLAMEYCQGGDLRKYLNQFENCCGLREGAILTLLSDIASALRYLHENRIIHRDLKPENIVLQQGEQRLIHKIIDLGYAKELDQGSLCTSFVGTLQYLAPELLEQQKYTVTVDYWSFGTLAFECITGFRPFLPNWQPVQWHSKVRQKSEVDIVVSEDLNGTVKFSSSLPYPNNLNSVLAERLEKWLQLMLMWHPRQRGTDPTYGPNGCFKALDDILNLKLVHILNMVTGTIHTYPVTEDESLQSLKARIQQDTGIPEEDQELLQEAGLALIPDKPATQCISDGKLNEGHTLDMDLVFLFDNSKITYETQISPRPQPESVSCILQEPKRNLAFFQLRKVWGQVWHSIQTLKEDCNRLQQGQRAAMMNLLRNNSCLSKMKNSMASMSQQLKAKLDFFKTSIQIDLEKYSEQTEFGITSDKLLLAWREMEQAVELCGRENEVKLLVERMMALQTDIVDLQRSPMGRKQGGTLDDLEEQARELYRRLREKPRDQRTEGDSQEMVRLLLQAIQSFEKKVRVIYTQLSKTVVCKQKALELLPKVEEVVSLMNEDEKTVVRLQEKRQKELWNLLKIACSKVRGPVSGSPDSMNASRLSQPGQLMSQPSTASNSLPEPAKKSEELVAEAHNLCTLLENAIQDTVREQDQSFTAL
Experimental: Recombinant human IKK2 (residues 1-737) was expressed in baculovirus as a C-terminal GST-tagged fusion protein, and its activity was assessed using a time-resolved fluorescence resonance energy transfer (TR-FRET) assay. Briefly, IKK2 (5 nM final) diluted in assay buffer (50 mM HEPES, 10 mM MgCl2, 1 mM CHAPS pH 7.4 with 1 mM DTT and 0.01% w/v BSA) was added to wells containing various concentrations of compound or DMSO vehicle (3% final). The reaction was initiated by the addition of GST-IκBα substrate (25 nM final)/ATP (1 μM final), in a total volume of 30 μl. The reaction was incubated for 30 minutes at room temperature, then terminated by the addition of 15 μl of 50 mM EDTA. Detection reagent (15 μl) in buffer (100 mM HEPES pH 7.4, 150 mM NaCl and 0.1% w/v BSA) containing antiphosphoserine-IκBα-32/36 monoclonal antibody 12C2 (Cell Signalling Technology, Beverly Mass., USA) labelled with W-1024 europium chelate (Wallac O Y, Turku, Finland), and an APC-labelled anti-GST antibody (Prozyme, San Leandro, Calif., USA) was added and the reaction was further incubated for 60 minutes at room temperature. The degree of phosphorylation of GST-IκBα was measured using a Packard Discovery plate reader (Perkin-Elmer Life Sciences, Pangboume, UK) as a ratio of specific 665 nm energy transfer signal to reference europium 620 nm signal.

| IC50 [µM] | Structure (SMILES) |
| --- | --- |
| < 15.8 | NC(=O)c1cc(-c2ccc(Cl)cc2)cc2cc[nH]c12 [Example 7, 5-(4-chlorophenyl)-1H-indole-7-carboxamide] |
| < 15.8 | NC(=O)c1cc(Br)cc2cc[nH]c12 [Intermediate 7, 5-bromo-1H-indole-7-carboxamide] |

| Structure (SMILES) | IC50 [µM] |
| --- | --- |
| NC(=O)c1cc(Br)cc2c(C3CCNCC3)c[nH]c12 [Intermediate 30, 5-bromo-3-(4-piperidinyl)-1H-indole-7-carboxamide] | < 15.8 |
